# Data reported in patent publication US9994915B2, “miR-211 expression and related pathways in human melanoma” (Sanford-Burnham Medical Research Institute, priority 2010, dated 2018).
# Experiments:
# Type in all cases: cell-based, human
# WM1552C melanoma cells = test: cell proliferation (cell counts) of WM1552C lines
# Description: The over-expression of KCNMA1 is often associated with both cell proliferation and cell migration/invasion in various cancers. Therefore, the effects of depletion of miR-211 and associated over-expression of KCNMA1 on these process in melanoma cells were determined. Proliferation rates of melanoma cell lines stably transfected with the miR-211 expression cassette were compared with those of untransfected melanoma cells and cell lines transfected with the empty expression vector (FIG. 8A), respectively.
# Assays were performed using WM1552C, WM1552C/VO, WM1552C/211(400), WM1552C/211(800), A375, A375/VO, and A375/211 cell lines. Cells were grown in log phase, trypsinized, counted using an automated cell counter (Cellometer®, Nexcelom Bioscience), and then seeded into 75 cm^2 flasks at 5×10^5 cells per flask (in triplicate). Media was changed after 6 hours, and cells were further fed every 48 hours (Complete Tu Media). At days 4, 10, 15, and 21, cells were trypsinized, counted (Cellometer®, Nexcelom Bioscience), and then reseeded. Each assay was performed in duplicate for all cell lines.
# KCNMA1 protein = test: western blot of KCNMA1 protein in WM1552C lines; settings: stably transfected WM1552C lines
# Description: qRT-PCR analyses were then run to determine whether the induced expression of miR-211 in melanoma cells could reduce KCNMA1 transcript levels. […] To further address whether KCNMA1 mRNA levels reflected KCNMA1 protein expression, a western blot analysis was performed looking for KCNMA1 in cell extracts obtained from: 1) WM1552C, 2) WM1552C/VO (WM1552C cells with a stably-incorporated empty expression vector), 3) WM1552C/211(400), 4) WM1552C/211(800), and 5) WM1552C/KC KO (WM1552C cells with a stably-expressing shRNA against the KCNMA1 mRNA) (FIG. 6C). […] To further confirm our observations, we measured the correlation between miR-211 expression and KCNMA1 protein levels (FIG. 6D). […] To confirm that this expression correlation occurred in non-transformed cells in addition to cancerous cell lines, the effect of miR-211 inhibition on the expression of KCNMA1 in melanocytes was examined. Melanocytes were transfected with anti-miR-211 inhibitors (Exiqon) and the protein expression of KCNMA1 was measured. […]
# 2.5×10^5 cells WM1552C/211(800) cells were seeded into wells of a 6-well plate. […] After 48 hours, the cells were harvested by trypsinization and counted using an automated cell counter (Cellometer®, Nexcelom Bioscience). […]
# A KCNMA1 constitutively-expressing plasmid was transiently transfected into WM1552C/211(800) cells. […] KCNMA1 protein expression levels were then detected by KCNMA1 antibody. […]
# IGFBP5 3′UTR = test: luciferase reporter target inhibition assay with IGFBP5 3′UTR; settings: A375/211 cells
# Description: A putative miR-211 binding site with the sequence 5′-aaagggaa-3′ (SEQ ID NO:40) is present in the 3′-UTR of the IGFBP5 mRNA (SEQ ID NO:41; FIG. 26). In order to investigate the specificity and mechanism of miR-211 inhibition of IGFBP5, three luciferase reporter constructs were created, each having a different 3′-UTR on the luciferase gene. The constructs were as follows: (i) luciferase coding sequence with the luciferase 3′-UTR (“pcDNA6/Luc/NP3”), (ii) luciferase coding sequence with the IGFBP5 3′-UTR (“pcDNA6/Luc/NP3/IGFBP5 3′UTR”), and (iii) luciferase coding sequence with the IGFBP5 3′-UTR having a mutation in the miR-211 binding site (“pcDNA6/Luc/NP3/IGFBP5 3′UTR Mut”). The mutant miR-211 binding site is represented by SEQ ID NO:42 (5′-taagccta-3′). Vectors encoding these constructs were transfected into native A375 cells, A375 cells containing the miR-211-expressing vector (“A375/211”), or A375 cells having an empty vector (“A375/VO”). […] In the miR-211-expressing A375 cells, luciferase expression was unaffected for the constructs containing the native luciferase 3′UTR and the IGFBP5 3′UTR in which the miR-211 binding site had been altered. However, the luciferase activity was reduced by nearly 40% when the native IGFBP5 3′UTR was expressed.
# A375 cells = test: abundance of mitochondria, MitoTracker; settings: miR-211-expressing cells
# PDK4 = test: proteomics (mass spectrometric) data, PDK4 expression; settings: miR-211-expressing melanoma cells
# Description: Deep-sequencing (RNA-seq) and proteomics (mass spectrometry) data from two melanoma cell lines A375 and WM1552C, each expressing miR-211 or the empty vector, were generated. […] Energy consumption was investigated in miR-211-expressing cells. Using the Seahorse XF96 Analyzer, it was determined that miR-211-expressing melanoma cells (A375) consumed nearly double the amount of oxygen as control cells expressing the empty vector (FIG. 35). […] Finally, we measured the level of hypoxia-inducible factor 1 alpha (HIF-1α) in miR-211-expressing cells. HIF-1α expression was reduced by miR-211 expression which is an indication of cellular respiration changes (FIG. 37).
# This target was further confirmed by the cleavage assay, and the downregulation was verified by western blot analysis (FIG. 38). Similarly, peroxisome proliferator-activated receptor-γ coactivator (PGC1α) was identified by the proteomics data and validated by western blot analysis. PGC1α is a low express gene in A375 cells, but it is been targeted by miR-211 according to target cleavage and qPCR results. Finally, insulin-like growth factor-binding protein 5 (IGFBP5) was identified through the RNA-seq data and results are illustrated in FIG. 34.
substance,measurement,setting,value
miR-211: pre-miR-211 sequence stably expressed from plasmid pcDNA4/miR-211 in melanoma cells; mature sequence UUCCCUUUGUCAUCCUUCGCCU (SEQ ID NO: 15) (listed as Homo sapiens),decrease in cell counts compared to WM1552C,"WM1552C melanoma cells; WM1552C/211(400), after a 21-day period",greater than 30%
same,decrease in cell proliferation compared to WM1552C,"WM1552C melanoma cells; WM1552C/211(800), after a 21-day period",even greater decrease
same,decrease in growth over the invasion assay period,"WM1552C melanoma cells; WM1552C/211 cells, 48 hours",8-10%
same,KCNMA1 protein levels compared to WM1552C/VO or untransfected WM1552C,KCNMA1 protein,significantly reduced
same,reduction of luciferase activity,IGFBP5 3′UTR; native IGFBP5 3′UTR construct,~40%
same,luciferase expression,IGFBP5 3′UTR; native luciferase 3′UTR or IGFBP5 3′UTR with altered miR-211 binding site,unaffected
same,number of mitochondria vs empty vector-expressing cells,A375 cells,higher number of mitochondria
same,PDK4 expression,PDK4,heavily downregulated
